Test results from ChEMBL document CHEMBL4350955, “Novel Chemical Series of 5-Lipoxygenase-Activating Protein Inhibitors for Treatment of Coronary Artery Disease” (J Med Chem, 2019).
In brackets after ≈: the same amount, converted by molar mass.

What was measured:
[1] = biological target: T1, Arachidonate 5-lipoxygenase-activating protein (Homo sapiens) (UniProt P20292); assay: (§1) Inhibition of FLAP in human whole blood assessed as reduction in calcium ionophore-stimulated LTB4 production preincubated for 30 mins followed by calcium ionophore stimulation and measured after 20 mins by EIA; type: tissue-based
T1 sequence (whole entry): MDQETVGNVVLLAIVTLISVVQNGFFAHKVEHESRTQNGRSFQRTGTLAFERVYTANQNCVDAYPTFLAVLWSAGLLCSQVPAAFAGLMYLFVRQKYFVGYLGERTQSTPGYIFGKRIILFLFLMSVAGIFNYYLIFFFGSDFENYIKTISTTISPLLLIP

[2] = Distribution coefficient between octanol and sodium phosphate buffer, logD of the compound in pH 7.4 buffer by LC-MS/MS-based shake flask method
[3] = biological target: T2, Arachidonate 5-lipoxygenase-activating protein (Homo sapiens, UniProt P20292); assay: as §1; type: tissue-based
T2 sequence (P20292 whole entry): T1 sequence (whole entry)

[4] = biological target: T2, Arachidonate 5-lipoxygenase-activating protein; assay: Inhibition of [3H]MK0591 binding to human FLAP expressed in […] cell membranes measured after 60 to 80 mins by scintillation counting method
[5] = Protein binding in Sprague-Dawley rat plasma assessed as unbound fraction by LC-MS based equilibrium dialysis analysis; type: ADME, cell-free
[6] = Metabolic stability in human hepatocytes assessed as parent compound remaining; type: ADME, cell-based, Hepatocyte
[7] = Clearance in po or iv dosed Sprague-Dawley rat; type: ADME, organism-based; conditions: in vivo
[8] = Bioavailability in po dosed Sprague-Dawley rat; type: ADME, organism-based; conditions: in vivo
[9] = Half-life in po or iv dosed Sprague-Dawley rat; type: ADME, organism-based; conditions: in vivo
[10] = Intrinsic clearance in cryopreserved human hepatocytes assessed as per million cells at 1 uM measured up to 60 mins by LC-MS/MS analysis; type: ADME, cell-based, Hepatocyte; conditions: read-out: CLH
[11] = Protein binding in human plasma assessed as unbound fraction by LC-MS based equilibrium dialysis analysis; type: ADME, cell-free
[12] = Volume of distribution at steady state in po or iv dosed Sprague-Dawley rat; type: ADME, organism-based; conditions: in vivo, read-out: Vdss
[13] = Apparent permeability across apical to basolateral side in human Caco2 cells; conditions: Caco-2
[14] = physchem; conditions: phosphate buffer, pH 7.4
Description: Aqueous solubility in pH 7.4 phosphate buffer after 24 hrs by UPLC/MS/MS analysis

[15] = biological target: Voltage-gated inwardly rectifying potassium channel KCNH2 (Homo sapiens, UniProt Q12809); assay: Inhibition of human ERG by high-throughput electrophysiology assay
Chain of Voltage-gated inwardly rectifying potassium channel KCNH2 (Q12809 whole entry): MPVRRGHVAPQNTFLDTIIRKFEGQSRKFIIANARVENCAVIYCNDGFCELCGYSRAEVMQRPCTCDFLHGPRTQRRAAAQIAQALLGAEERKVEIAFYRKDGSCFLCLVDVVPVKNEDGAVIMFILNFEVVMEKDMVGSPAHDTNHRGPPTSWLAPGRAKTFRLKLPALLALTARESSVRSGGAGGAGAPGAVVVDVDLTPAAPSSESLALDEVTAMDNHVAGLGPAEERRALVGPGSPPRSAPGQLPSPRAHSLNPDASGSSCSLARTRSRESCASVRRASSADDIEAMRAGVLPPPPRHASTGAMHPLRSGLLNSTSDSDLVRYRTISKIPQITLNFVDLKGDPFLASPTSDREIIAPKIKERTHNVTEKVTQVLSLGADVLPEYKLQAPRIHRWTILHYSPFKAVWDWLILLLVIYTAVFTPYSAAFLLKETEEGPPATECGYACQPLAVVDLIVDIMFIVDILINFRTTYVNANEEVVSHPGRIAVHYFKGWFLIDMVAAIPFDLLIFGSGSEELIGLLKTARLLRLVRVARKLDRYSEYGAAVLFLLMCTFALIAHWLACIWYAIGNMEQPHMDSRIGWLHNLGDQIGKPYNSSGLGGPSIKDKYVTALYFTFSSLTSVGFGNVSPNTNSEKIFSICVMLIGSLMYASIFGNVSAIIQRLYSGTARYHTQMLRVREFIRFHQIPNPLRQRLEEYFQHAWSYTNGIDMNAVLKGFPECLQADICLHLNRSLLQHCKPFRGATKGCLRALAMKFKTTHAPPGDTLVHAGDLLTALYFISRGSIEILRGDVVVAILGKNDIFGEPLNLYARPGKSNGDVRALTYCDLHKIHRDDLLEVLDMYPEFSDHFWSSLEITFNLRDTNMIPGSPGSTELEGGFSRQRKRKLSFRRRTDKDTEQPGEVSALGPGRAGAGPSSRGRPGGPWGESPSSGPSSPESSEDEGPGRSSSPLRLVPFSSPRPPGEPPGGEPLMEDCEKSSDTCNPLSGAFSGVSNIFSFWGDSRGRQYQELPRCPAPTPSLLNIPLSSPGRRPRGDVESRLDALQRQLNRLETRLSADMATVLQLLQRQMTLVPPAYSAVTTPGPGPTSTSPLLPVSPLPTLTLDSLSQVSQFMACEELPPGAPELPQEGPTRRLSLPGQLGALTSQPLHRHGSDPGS

[16] = biological target: CYP450 (Homo sapiens, UniProt P04798+P05177+P05181+P08684+P10632+P10635+P11509+P11712+P13584+P20813+P20815+P20853+P24462+P24903+P33260+P33261+P51589+P78329+P98187+Q02928+Q08477+Q16678+Q16696+Q5TCH4+Q6VVX0+Q7Z449+Q8TAV3+Q96SQ9+Q9HB55); assay: Inhibition of CYP450 assessed as maximum reduction in metabolite formation using coumarin based substrate by fluorescence assay; type: ADME, protein assay; conditions: probe coumarin based substrate
[17] = biological target: Cytochrome P450 2C9 (Homo sapiens, UniProt P11712); assay: Inhibition of recombinant human CYP2C9 expressed in Escherichia coli assessed as maximum reduction in metabolite formation using coumarin based substrate by fluorescence assay; type: ADME
Chain of Cytochrome P450 2C9 (P11712 whole entry): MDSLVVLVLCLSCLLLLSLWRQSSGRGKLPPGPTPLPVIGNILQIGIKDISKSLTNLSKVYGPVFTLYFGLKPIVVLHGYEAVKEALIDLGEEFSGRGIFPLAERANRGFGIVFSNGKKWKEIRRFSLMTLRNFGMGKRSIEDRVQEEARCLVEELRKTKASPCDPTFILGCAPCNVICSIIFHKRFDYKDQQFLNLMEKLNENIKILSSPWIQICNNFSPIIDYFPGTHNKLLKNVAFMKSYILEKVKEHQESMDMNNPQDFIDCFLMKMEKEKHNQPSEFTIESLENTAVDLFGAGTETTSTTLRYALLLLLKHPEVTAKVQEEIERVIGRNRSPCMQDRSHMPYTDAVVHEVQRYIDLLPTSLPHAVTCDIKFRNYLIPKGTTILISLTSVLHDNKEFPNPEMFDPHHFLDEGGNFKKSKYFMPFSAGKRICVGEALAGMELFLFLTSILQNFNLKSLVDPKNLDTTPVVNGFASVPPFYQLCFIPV

[18] = biological target: T2, Arachidonate 5-lipoxygenase-activating protein; assay: (§2) Inhibition of FLAP in human whole blood assessed as reduction in calcium ionophore-stimulated LTB4 production preincubated for 4 hrs followed by calcium ionophore stimulation and measured after 20 mins by EIA; type: tissue-based
[19] = biological target: T1, Arachidonate 5-lipoxygenase-activating protein (Homo sapiens); assay: as §2; type: tissue-based
[20] = biological target: hERG (KCNH2) (Homo sapiens, UniProt Q12809); assay: Inhibition of human ERG at 10 uM high-throughput electrophysiology assay relative to control
Chain of hERG (KCNH2) (Q12809 whole entry): as the sequence (Q12809 whole entry) above

Row | SMILES | fpIC50 [1] | logD [2] | IC50 [3] [µM] | IC50 [4] [µM] | hepatocyte CLint at 1 µM [10] [µL/min/1e6 cells] | other results
1 | Cn1cc(NC(=O)[C@@H]2CCCC[C@H]2C(=O)c2ccc(-c3cc[nH]n3)cc2)c(OC(F)F)n1 | 8.5 | – | – | – | – | –
2 | Cc1cnn(-c2ccc(C(=O)[C@@H]3CCCC[C@H]3C(=O)Nc3cccc(C(N)=O)c3)cc2)c1 (racemic) | 7.4 | 3.6 | 2 | 0.316 | – | –
3 | O=C(NCCc1ccccn1)[C@@H]1CCCC[C@H]1C(=O)c1ccc(-c2cc[nH]n2)cc1 | 6.7 | 3 | 2.51 | 0.251 | – | –
4 | Cc1nn(C)cc1NC(=O)[C@@H]1[C@H]2CC[C@H](CC2)[C@H]1C(=O)c1ccc(-c2cc[nH]n2)cc1F (racemic) | 7.1 | 4 | 0.2 | 0.0631 | – | –
5 | Cc1nn(C)cc1NC(=O)[C@@H]1CCCC[C@H]1C(=O)c1ccc(-c2cc[nH]n2)cc1 [listing 1 of 2 here] | – | – | 0.2 | 0.0501 | – | –
6 | Cc1nn(C)cc1NC(=O)[C@@H]1CCCC[C@H]1C(=O)c1ccc(-c2cc[nH]n2)nc1 (racemic) | 5.8 | 1.8 | 3.98 | 1 | – | –
7 | Cc1noc(C)c1NC(=O)[C@@H]1CCCC[C@H]1C(=O)c1ccc(-c2cc[nH]n2)cc1 (racemic) | – | – | 0.501 | 0.2 | 6 | –
8 | Cc1nn(C)cc1NC(=O)[C@@H]1CCCC[C@H]1C(=O)c1ccc(-c2cc[nH]n2)cc1 (racemic) [listing 2 of 2 here] | 7.1 | – | – | – | – | –
9 | Cc1c[nH]nc1-c1ccc(C(=O)[C@@H]2CCCC[C@H]2C(=O)Nc2cn(C)nc2C)cc1 (racemic) | – | 3.1 | – | 1 | – | –
10 | Cn1ncc(NC(=O)[C@@H]2C[C@@H]3C[C@@H]3C[C@H]2C(=O)c2ccc(-c3cc[nH]n3)cc2)c1C(F)(F)F | 8.5 | 3.7 | 0.0501 | 0.0126 | 12 | fraction unbound [5]: 0.04; clearance [7]: 9.8 mL/min/kg; IC50 [17]: 5.01 µM; bioavailability [8]: 100%; half-life [9]: 1.4 h; Papp A→B [13]: 59 ×10⁻⁶ cm/s; solubility at 24 h [14]: 63 µM (≈ 28.8 µg/mL); fraction unbound [11]: 0.066; Vd [12]: 1.1 L/kg
11 | Cn1ncc(NC(=O)[C@@H]2CCCC[C@H]2C(=O)c2ccc(-c3cc[nH]n3)cc2)c1C(F)(F)F | 8.4 | 3.6 | 0.0501 | 0.0398 | 7 | fraction unbound [5]: 0.042; Stability [6]: 83%; clearance [7]: 4.8 mL/min/kg; IC50 [17]: 6.31 µM; bioavailability [8]: 100%; half-life [9]: 3 h; Papp A→B [13]: 59 ×10⁻⁶ cm/s; solubility at 24 h [14]: 80 µM (≈ 35.6 µg/mL); inhibition at 10 µM [20]: 32%; fraction unbound [11]: 0.075; Vd [12]: 0.97 L/kg
12 | Cc1nn(C)cc1N(C)C(=O)[C@@H]1CCCC[C@H]1C(=O)c1ccc(-c2cc[nH]n2)cc1 | 7.5 | 3 | 0.251 | 0.2 | – | –
13 | Cc1nn(C)cc1NC(=O)[C@@H]1CCCC[C@H]1C(=O)c1ccc(-c2ccnn2C)cc1 (racemic) | 5.1 | 2.5 | 31.6 | 25.1 | – | –
14 | Cc1nn(C)cc1NC(=O)[C@H]1CCCC[C@@H]1C(=O)c1ccc(-c2cc[nH]n2)cc1 | 5.8 | – | 7.94 | 2 | – | –

Further lines, with some results ahead:

Row | fpIC50 [1] | logD [2] | IC50 [3] [µM] | IC50 [4] [µM] | hepatocyte CLint at 1 µM [10] [µL/min/1e6 cells] | SMILES | other results
15 | 8.5 | – | 0.0501 | 0.0251 | 12 | Cn1cc(NC(=O)[C@@H]2CCCC[C@H]2C(=O)c2ccc(-c3cc[nH]n3)cc2)c(C(F)(F)F)n1 | fraction unbound [5]: 0.054; Stability [6]: 62%; clearance [7]: 6.8 mL/min/kg; bioavailability [8]: 62%; half-life [9]: 1.6 h; fraction unbound [11]: 0.063; Vd [12]: 1 L/kg
16 | 7.9 | – | – | – | – | Cc1cc(-c2ccc(C(=O)[C@@H]3CCCC[C@H]3C(=O)Nc3cn(C)nc3C(N)=O)cc2)[nH]n1 | –
17 | 6.8 | 2.8 | 2 | 0.501 | – | Cc1nn(C)cc1NC(=O)[C@@H]1CCCC[C@H]1C(=O)c1ccc(-c2ccccn2)cc1 (racemic) | –
18 | – | 2.6 | 0.501 | 0.0794 | < 4 | Cc1nn(C)cc1NC(=O)[C@@H]1CCCC[C@H]1C(=O)c1ccc(-c2cc[nH]n2)cc1 (racemic) [listing 1 of 2 here] | Papp A→B [13]: 26 ×10⁻⁶ cm/s; solubility at 24 h [14]: 92 µM (≈ 36 µg/mL); IC50 [15]: > 12.6 µM; IC50 [16]: > 20 µM
19 | 9.3 | 3.9 | 0.0158 | 0.0158 | 22 | COc1cc(NC(=O)[C@@H]2CCCC[C@H]2C(=O)c2ccc(-c3cc[nH]n3)cc2)ncn1 | IC50 [17]: 5.01 µM; Papp A→B [13]: 69 ×10⁻⁶ cm/s; solubility at 24 h [14]: 22 µM (≈ 8.92 µg/mL); IC50 [15]: 12.6 µM
20 | 6.9 | 3 | 0.794 | 1 | – | Cc1cc(-c2cc[nH]n2)ccc1C(=O)[C@@H]1CCCC[C@H]1C(=O)Nc1cn(C)nc1C (racemic) | –
21 | – | 2.1 | – | 0.0631 | – | CC(C)(CNC(=O)[C@@H]1CCCC[C@H]1C(=O)c1ccc(-c2cc[nH]n2)cc1)S(C)(=O)=O | IC50 [18]: 0.126 µM; fpIC50 [19]: 7.4
22 | – | 3.1 | – | 1 | – | Cc1nn(C)cc1NC(=O)[C@@H]1CCCC[C@H]1C(=O)c1ccc(-c2ccc[nH]2)cc1 (racemic) | –
23 | – | 3.1 | – | – | 12 | Cc1cc(-c2ccc(C(=O)[C@@H]3CCCC[C@H]3C(=O)Nc3cn(C)nc3C(N)=O)cc2)n[nH]1 | fraction unbound [5]: 0.024; Stability [6]: 79%; clearance [7]: 5.5 mL/min/kg; IC50 [17]: 10 µM; bioavailability [8]: 40%; half-life [9]: 1.4 h; Papp A→B [13]: 22 ×10⁻⁶ cm/s; solubility at 24 h [14]: 60 µM (≈ 26.1 µg/mL); IC50 [15]: > 31.6 µM; fraction unbound [11]: 0.076; Vd [12]: 0.64 L/kg
24 | – | 3.9 | – | 2.51 | – | CC(=O)c1cccc(-c2ccc(C(=O)[C@@H]3CCCC[C@H]3C(=O)Nc3c(C)noc3C)cc2)c1 (racemic) | –
25 | – | 3.4 | – | 0.0794 | 13 | Cc1cc(-c2ccc3c([C@@H]4CCCC[C@H]4C(=O)Nc4cn(C)nc4C(N)=O)noc3c2)n[nH]1 | Stability [6]: 68%; IC50 [17]: 7.94 µM; Papp A→B [13]: 7 ×10⁻⁶ cm/s; solubility at 24 h [14]: 27 µM (≈ 12.1 µg/mL); IC50 [15]: > 31.6 µM; IC50 [18]: 0.0631 µM; fpIC50 [19]: 8.5
26 | 7.4 | – | – | – | – | Cc1nn(C)cc1NC(=O)[C@@H]1CCCC[C@H]1C(=O)c1ccc(-c2cc[nH]n2)cc1 [listing 2 of 2 here] | –
